Measurements as given in the NIST ThermoML archive (doi:10.1021/je0302250).
Numbers after ± are expanded uncertainties.

Columns and labels:
[1] = 101.3 kPa, Liquid, Capillary tube (Ostwald / Ubbelohde) method
[2] = xn = mol fraction of the nth substance listed; details: 101.3 kPa, Liquid, Capillary tube (Ostwald / Ubbelohde) method

CN(CCO)CCO [N-methyldiethanolamine]
[1]
Details	viscosity [mPa·s]
313.15 K	34.62 ± 0.41
333.15 K	14.38 ± 0.17
353.15 K	7.082 ± 0.086
363.15 K	5.277 ± 0.064

CN(CCO)CCO [N-methyldiethanolamine] + O
viscosity [mPa·s], [2]
Details	x1 = 0.06	x1 = 0.09	x1 = 0.129	x1 = 0.257	x1 = 0.372	x1 = 0.583	x1 = 0.743	x1 = 1
313.15 K	1.94 ± 0.023	3.115 ± 0.039	5.108 ± 0.069	15.18 ± 0.18	24.78 ± 0.28	34.79 ± 0.39	35.92 ± 0.41	34.62 ± 0.41
333.15 K	1.202 ± 0.014	1.709 ± 0.021	2.703 ± 0.034	6.7 ± 0.081	10.24 ± 0.12	13.74 ± 0.16	14.49 ± 0.17	14.38 ± 0.17
353.15 K	0.813 ± 0.01	1.127 ± 0.014	1.63 ± 0.02	3.472 ± 0.042	4.873 ± 0.057	6.569 ± 0.077	7.084 ± 0.083	7.082 ± 0.086
363.15 K	0.687 ± 0.008	0.871 ± 0.01	1.205 ± 0.015	2.606 ± 0.031	3.611 ± 0.042	4.749 ± 0.056	5.278 ± 0.062	5.277 ± 0.064

O [water] + CN(CCO)CCO
[2], x2 = 0
Details	viscosity [mPa·s]
313.15 K	0.656 ± 0.008
333.15 K	0.476 ± 0.006
353.15 K	0.358 ± 0.004
363.15 K	0.305 ± 0.004
